Assay results reported in patent US11926628B2 (Gilead Sciences, Inc., priority 2021, dated 2024).

Experiments:
[1] = test system: Jurkat NFκB-luciferase cells; experiment: Jurkat NFκB-Luciferase Assay; format: cell-based; conditions: Homo sapiens; Jurkat NFκB-luciferase cells activated with anti-CD3 antibody (OKT3), 2.5 hrs at 37° C.; geometric mean; read-out: DGK NFKb Luciferase EC50
Summary of the method: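 Jurkat NFκB-luciferase reporter cells stimulated on plate-bound anti-CD3 (5 ug/ml coating) with compound, 2.5 hrs at 37° C then 30 min at 25° C; luminescence read with One-Glo Ex. Normalized to DMSO (basal) and 1 micromolar compound (maximum) controls; EC50 from four-parameter fit, geometric mean across experiments.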

human DGKα = human DGKα (Homo sapiens (Human), UniProt P23743); experiment: DGKα Biochemical Activity Assay (ADP-Glo); conditions: recombinant DGKα 1 nM, 100 μM ATP, 18:1 DAG/POPS/octylglucoside micelles, 1 hour at 25° C.; geometric mean; read-out: HTBS DGKa 1X ATP KM IC50
Summary of the method: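 Recombinant DGKα (1 nM final) was preincubated with compound for 15 min, then reacted for 1 h at 25 °C with 100 μM ATP and octylglucoside micelles of 0.85 mM 18:1 DAG and 6.75 mM POPS in pH 7.2 MOPS with 5 mM MgCl2. ADP formed was read by ADP-Glo luminescence. IC50 came from four-parameter fits normalized to DMSO and 50 μM CU3, and values were geometric means.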

Sequence of human DGKα (P23743 whole entry): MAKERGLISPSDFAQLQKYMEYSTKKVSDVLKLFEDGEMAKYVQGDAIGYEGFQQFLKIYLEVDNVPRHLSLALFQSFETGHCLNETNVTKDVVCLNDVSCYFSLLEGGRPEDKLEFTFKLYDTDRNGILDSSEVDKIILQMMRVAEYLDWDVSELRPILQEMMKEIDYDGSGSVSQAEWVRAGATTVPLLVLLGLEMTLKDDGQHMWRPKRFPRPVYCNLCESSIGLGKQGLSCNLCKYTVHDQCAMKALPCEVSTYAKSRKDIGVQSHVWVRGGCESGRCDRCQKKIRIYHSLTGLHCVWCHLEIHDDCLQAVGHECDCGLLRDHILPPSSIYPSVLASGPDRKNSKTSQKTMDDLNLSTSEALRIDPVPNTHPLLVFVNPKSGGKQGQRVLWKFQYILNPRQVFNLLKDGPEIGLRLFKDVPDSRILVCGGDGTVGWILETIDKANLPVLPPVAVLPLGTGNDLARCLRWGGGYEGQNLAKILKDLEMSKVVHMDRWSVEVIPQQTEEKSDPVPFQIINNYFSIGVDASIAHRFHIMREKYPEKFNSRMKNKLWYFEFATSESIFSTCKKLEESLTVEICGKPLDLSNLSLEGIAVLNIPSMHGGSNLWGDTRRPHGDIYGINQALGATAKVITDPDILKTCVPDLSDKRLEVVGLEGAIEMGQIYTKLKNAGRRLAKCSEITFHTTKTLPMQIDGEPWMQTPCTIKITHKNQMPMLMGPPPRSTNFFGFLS

| Compound | EC50 [1] | IC50 (human DGKα) |
| --- | --- | --- |
| Cc1nnc2nc(N3CCOCc4c(C#CC5(C(F)(F)F)CC5)cccc43)c3c(F)cncc3n12 [Example 78, 1-(6-fluoro-1-methylpyrido[4,3-e][1,2,4]triazolo[4,3-a]pyrimidin-5-yl)-6-((1-(trifluoromethyl)cyclopropyl)ethynyl)-1,2,3,5-tetrahydrobenzo[e][1,4]oxazepine] | 1.95 nM | 4.34 nM |
| Cc1nnc2nc(N3CCOCc4c(C#CC5(C)CC5)cccc43)c3c(F)cncc3n12 [Example 79, 1-(6-fluoro-1-methylpyrido[4,3-e][1,2,4]triazolo[4,3-a]pyrimidin-5-yl)-6-((1-methylcyclopropyl)ethynyl)-1,2,3,5-tetrahydrobenzo[e][1,4]oxazepine] | 2 nM | 2.28 nM |
| Cc1nnc2nc(N3CCOCc4c(C#CC5CC5)cccc43)c3c(F)cncc3n12 [Example 80, 6-(cyclopropylethynyl)-1-(6-fluoro-1-methylpyrido[4,3-e][1,2,4]triazolo[4,3-a]pyrimidin-5-yl)-1,2,3,5-tetrahydrobenzo[e][1,4]oxazepine] | 4.78 nM | 1.68 nM |
| Cc1nnc2nc(N3CCOCc4c(Br)cccc43)c3c(F)cncc3n12 [Example 81, 6-bromo-1-(6-fluoro-1-methylpyrido[4,3-e][1,2,4]triazolo[4,3-a]pyrimidin-5-yl)-1,2,3,5-tetrahydrobenzo[e][1,4]oxazepine] | 46.7 nM | 151 nM |
| CC1(C#Cc2cccc3c2CCCN3c2nc3nncn3c3cnccc23)CC1 [Example 82] | 1.3 nM | 10.3 nM |
| FC(F)(F)C1(C#Cc2cccc3c2CCCN3c2nc3nncn3c3cnccc23)CC1 [Example 83, 8-[5-[2-[1-(trifluoromethyl)cyclopropyl]ethynyl]-3,4-dihydro-2H-quinolin-1-yl]-2,4,5,7,12-pentazatricyclo[7.4.0.02,6]trideca-1(13),3,5,7,9,11-hexaene] | 1.76 nM | 14.2 nM |
| CC(C)(C#Cc1cccc2c1CCCN2c1nc2nncn2c2cncc(F)c12)C(F)(F)F [Example 84, 10-fluoro-8-[5-(4,4,4-trifluoro-3,3-dimethyl-but-1-ynyl)-3,4-dihydro-2H-quinolin-1-yl]-2,4,5,7,12-pentazatricyclo[7.4.0.02,6]trideca-1(13),3,5,7,9,11-hexaene] | 1.19 nM | 10.7 nM |
| CC(C)(O)C#Cc1cccc2c1CCCN2c1nc2nncn2c2cncc(F)c12 [Example 85, 4-[1-(10-fluoro-2,4,5,7,12-pentazatricyclo[7.4.0.02,6]trideca-1(13),3,5,7,9,11-hexaen-8-yl)-3,4-dihydro-2H-quinolin-5-yl]-2-methyl-but-3-yn-2-ol] | 12.7 nM | 13.4 nM |
| CC1(C#Cc2cccc3c2CCCN3c2nc3nncn3c3cncc(F)c23)CC1 [Example 86, 10-fluoro-8-[5-[2-(1-methylcyclopropyl)ethynyl]-3,4-dihydro-2H-quinolin-1-yl]-2,4,5,7,12-pentazatricyclo[7.4.0.02,6]trideca-1(13),3,5,7,9,11-hexaene] | 0.518 nM | 3.39 nM |
| Fc1cncc2c1c(N1CCCc3c(C#CC4(C(F)(F)F)CC4)cccc31)nc1nncn12 [Example 87, 10-fluoro-8-[5-[2-[1-(trifluoromethyl)cyclopropyl]ethynyl]-3,4-dihydro-2H-quinolin-1-yl]-2,4,5,7,12-pentazatricyclo[7.4.0.02,6]trideca-1(13),3,5,7,9,11-hexaene] | 0.839 nM | 8.6 nM |
| Cc1nnc2nc(N3CCOCc4c(C#CC5(C(C)(F)F)CC5)cccc43)c3c(F)cncc3n12 [Example 94, 6-((1-(1,1-difluoroethyl)cyclopropyl)ethynyl)-1-(6-fluoro-1-methylpyrido[4,3-e][1,2,4]triazolo[4,3-a]pyrimidin-5-yl)-1,2,3,5-tetrahydrobenzo[e][1,4]oxazepine] | 3.39 nM | 25.1 nM |
| Cc1nnc2nc(N3CCOCc4c(C#Cc5cnn(C)c5)cccc43)c3c(F)cncc3n12 [Example 95, 1-(6-fluoro-1-methylpyrido[4,3-e][1,2,4]triazolo[4,3-a]pyrimidin-5-yl)-6-((1-methyl-1H-pyrazol-4-yl)ethynyl)-1,2,3,5-tetrahydrobenzo[e][1,4]oxazepane] | 31.2 nM | 6.95 nM |
| Cc1nnc2nc(N3CCOCc4c(C#CC(C)(C)C#N)cccc43)c3c(F)cncc3n12 [Example 96, 4-(1-(6-fluoro-1-methylpyrido[4,3-e][1,2,4]triazolo[4,3-a]pyrimidin-5-yl)-1,2,3,5-tetrahydrobenzo[e][1,4]oxazepin-6-yl)-2,2-dimethylbut-3-ynenitrile] | 6.63 nM | 3.84 nM |
| Cc1nnc2nc(N3CCCc4c(C#CC(C)(C)C#N)cccc43)c3c(F)cncc3n12 [Example 97, 4-(1-(6-fluoro-1-methylpyrido[4,3-e][1,2,4]triazolo[4,3-a]pyrimidin-5-yl)-1,2,3,4-tetrahydroquinolin-5-yl)-2,2-dimethylbut-3-ynenitrile] | 4.1 nM | 4.65 nM |

Next, values leading:

| EC50 [1] | IC50 (human DGKα) | Compound |
| --- | --- | --- |
| 1.22 nM | 41.1 nM | CCN(c1cc(F)cc(C#CC(C)(C)C(F)(F)F)c1)c1nc2nncn2c2cncc(F)c12 [Example 88, N-ethyl-10-fluoro-N-[3-fluoro-5-(4,4,4-trifluoro-3,3-dimethyl-but-1-ynyl)phenyl]-2,4,5,7,12-pentazatricyclo[7.4.0.02,6]trideca-1(13),3,5,7,9,11-hexaen-8-amine] |
| 0.655 nM | 6.18 nM | CCN(c1cc(F)cc(C#CC2(C)CC2)c1)c1nc2nncn2c2cncc(F)c12 [Example 89, N-ethyl-10-fluoro-N-[3-fluoro-5-[2-(1-methylcyclopropyl)ethynyl]phenyl]-2,4,5,7,12-pentazatricyclo[7.4.0.02,6]trideca-1(13),3,5,7,9,11-hexaen-8-amine] |
| 0.715 nM | 12 nM | CCN(c1cc(F)cc(C#CC2(C(F)(F)F)CC2)c1)c1nc2nncn2c2cncc(F)c12 [Example 90, N-ethyl-10-fluoro-N-[3-fluoro-5-[2-[1-(trifluoromethyl)cyclopropyl]ethynyl]phenyl]-2,4,5,7,12-pentazatricyclo[7.4.0.02,6]trideca-1(13),3,5,7,9,11-hexaen-8-amine] |
| 1.25 nM | 6.25 nM | CN(c1cc(F)cc(C#CC2(C)CC2)c1)c1nc2nncn2c2cncc(F)c12 [Example 91, 10-fluoro-N-[3-fluoro-5-[2-(1-methylcyclopropyl)ethynyl]phenyl]-N-methyl-2,4,5,7,12-pentazatricyclo[7.4.0.02,6]trideca-1(13),3,5,7,9,11-hexaen-8-amine] |
| 32.1 nM | 17.4 nM | CN(c1cc(F)cc(C#CC(C)(C)O)c1)c1nc2nncn2c2cncc(F)c12 [Example 92, 4-[3-fluoro-5-[(10-fluoro-2,4,5,7,12-pentazatricyclo[7.4.0.02,6]trideca-1(13),3,5,7,9,11-hexaen-8-yl)-methyl-amino]phenyl]-2-methyl-but-3-yn-2-ol] |
| 0.763 nM | 7.17 nM | CN(c1cc(F)cc(C#CC2(C(F)(F)F)CC2)c1)c1nc2nncn2c2cncc(F)c12 [Example 93, 10-fluoro-N-[3-fluoro-5-[2-[1-(trifluoromethyl)cyclopropyl]ethynyl]phenyl]-N-methyl-2,4,5,7,12-pentazatricyclo[7.4.0.02,6]trideca-1(13),3,5,7,9,11-hexaen-8-amine] |
